B1: matrix protein 1 (M1) N-terminal domain, residues 1-165, of influenza A virus H1N1 A/WSN/33 (domain or fragment)
chain: MSLLTEVETYVLSIVPSGPLKAEIAQRLEDVFAGKNTDLEVLMEWLKTRPILSPLTKGILGFVFTLTVPSERGLQRRRFVQNALNGNGDPNNMDKAVKLYRKLKREITFHGAKEIALSYSAGALASCMGLIYNRMGAVTTEVAFGLVCATCEQIADSQHRSHRQM
notes: also called N1-165-domain of WSN/33; biotinylated M1

Experiments:
[1] = biological target: T1, M1 (matrix protein 1), recombinant N1-165 domain of WSN/33 (Influenza A virus (A/Wilson-Smith/1933(H1N1)), UniProt P05777); assay: surface plasmon resonance, biotinylated M1 on NeutrAvidin chip; assay type: binding
T1 construct: gene M

[2] = biological target: T1, M1 (matrix protein 1), recombinant N1-165 domain of WSN/33 (Influenza A virus (A/Wilson-Smith/1933(H1N1)), UniProt P05777); assay: bio-layer interferometry, inhibition of M1-M1 self-association; assay type: binding
[3] = biological target: the molecule itself; assay: SPR; […], room temperature, pH 7.4; […]

| Molecule | Kd [1] [nM] | IC50 [2] [nM] | Kd [3] [nM] |
| --- | --- | --- | --- |
| CCCc1c(OCCCOc2ccc(OCC(=O)O)cc2)ccc(C(C)=O)c1O [PHE] | 870 ± 150 | ~6000 |  |
| B1 |  |  | 0.05 ± 0.03 |

Source: publication PMC5004101, “Broad Spectrum Anti-Influenza Agents by Inhibiting Self-Association of Matrix Protein 1” (Scientific Reports, 2016)
